Results published in patent US6387909B1, “Thienopyranecarboxamide derivatives” (Recordati S.A. Chemical and Pharmaceutical Company, priority 1999, dated 2002).

What was measured:
α1L adrenoceptor = biological target: T1, α1L adrenoceptor (Oryctolagus cuniculus, UniProt O02824); experiment: Functional antagonism of noradrenaline-induced contractions of rabbit aorta pretreated with chloroethylclonidine; type: biochemical; details: NA-induced contractions
T1 sequence (O02824 1-466): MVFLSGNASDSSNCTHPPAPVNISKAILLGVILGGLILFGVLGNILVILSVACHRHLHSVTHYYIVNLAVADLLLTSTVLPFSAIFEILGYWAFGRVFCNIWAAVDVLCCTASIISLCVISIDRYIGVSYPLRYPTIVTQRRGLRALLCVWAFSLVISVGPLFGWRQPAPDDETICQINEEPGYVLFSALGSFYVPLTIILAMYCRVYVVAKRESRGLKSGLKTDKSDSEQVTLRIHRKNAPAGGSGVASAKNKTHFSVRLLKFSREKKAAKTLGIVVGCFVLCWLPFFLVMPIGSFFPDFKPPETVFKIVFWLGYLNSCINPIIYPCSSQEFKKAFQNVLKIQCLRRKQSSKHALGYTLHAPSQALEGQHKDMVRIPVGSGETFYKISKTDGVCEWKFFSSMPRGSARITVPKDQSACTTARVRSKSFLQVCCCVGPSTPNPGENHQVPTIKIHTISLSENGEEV
Experimental: Adult male New Zealand rabbits were sacrificed by cervical dislocation. The aorta was removed, placed in Krebs-Henseleit buffer and dissected free of adhering tissue. […] Desmethylimipramine (0.1 μM) and corticosterone (1 μM) to block neuronal and extraneuronal uptake of NA, (±)-propranol (1 μM) to block β adrenoceptors and yohimbine (0.1 μM) to block α2 adrenoceptors were added to the buffer.
The preparations were equilibrated for 60 minutes and then primed every 30 minutes with 10 μM NA for three times. The aortic rings were then incubated with the alkylating agent chloroethylclonidine (50 μM) for 30 minutes and then washed extensively three times, over a 30 min period before constructing the NA-concentration/response curve. Following washing, tissue was re-equilibrated for 45 min. Test drug was added and after 30 minutes, a second cumulative-NA-concentration/response curve was constructed. Each antagonist concentration was tested using 2-3 aortic rings from different rabbits.
Dose ratios (i.e., the ratio between the concentrations of noradrenaline required to produce half-maximal response in the presence and in the absence of the test antagonist) were calculated at each concentration of the compounds. The logarithm of these dose ratio −1 was plotted against the logarithm of the compound concentrations (Schild plot) to evaluate the affinity constant Kb.
When only one or two concentrations of the test compounds were utilised, the apparent Kb value was calculated using the formula: Kb=[B]/(DOSE RATIO-1), where B is the antagonist concentration.

[1] = tested on: prostatic urethral contractions induced by noradrenaline; experiment: Urethral contractions induced by noradrenaline injection in anaesthetized dogs after intravenous administration; type: in vivo; details: dog, i.v.
Experimental: The experiments were performed according to the method of Imagawa et al. (J. Pharmacol. Methods, 22:103-111, 1989), with substantial modifications, as follows: adult male beagle dogs, weighing 8-10 kg, were anaesthetized with pentobarbital sodium (30 mg/kg i.v. and 2 mg/kg/h i.v.), intubated and spontaneously ventilated with room air. In order to monitor systemic blood pressure (BP), a polyethylene (PE) catheter was introduced into the aortic arch through the left femoral artery. A collateral of the left femoral vein was cannulated for infusion of anaesthetic, and the right femoral vein was cannulated for administration of compounds. For intraarterial (i.a.) injection of noradrenaline (NA), a PE catheter was introduced into the lower portion of the abdominal aorta via the right external iliac artery. Through such procedure, NA was selectively distributed to the lower urinary tract. A paramedian vertical suprapubic incision extending from the base of the pelvis to the mid-abdominal region was made and the bladder and the prostate were exposed. The bladder was manually emptied with a syringe. Prostatic urethral pressure was monitored with a Mikro-tip catheter (5F) introduced into the bladder via the external urethral meatus, and withdrawn until the pressure transducer was positioned in the prostatic region of the urethra. A ligature was secured between the neck of the bladder and urethra to isolate the response of the latter and to avoid any interaction with the bladder. Another ligature was put around the Mikro-tip catheter at the external meatus, to secure the catheter itself.
After a stabilizing period following the surgical procedure (30 minutes), in which arterial and prostatic urethral pressures were continuously monitored as basal values, i.a. administration of NA was made at intervals of 20 minutes.
The NA doses were chosen to produce an increase of at least 100% in urethral pressure. The test compounds were administered intravenously in a cumulative manner with intervals of 15-20 minutes between administrations. […]

[2] = biological target: T2, recombinant α1a-adrenoceptor (Homo sapiens, UniProt P35348); experiment: Radioligand binding ([3H]prazosin) to cloned α1a adrenoceptor; details: read-out: Affinity (Ki) α1a
T2 construct: expressed in transfected cells
T2 sequence (P35348 1-466): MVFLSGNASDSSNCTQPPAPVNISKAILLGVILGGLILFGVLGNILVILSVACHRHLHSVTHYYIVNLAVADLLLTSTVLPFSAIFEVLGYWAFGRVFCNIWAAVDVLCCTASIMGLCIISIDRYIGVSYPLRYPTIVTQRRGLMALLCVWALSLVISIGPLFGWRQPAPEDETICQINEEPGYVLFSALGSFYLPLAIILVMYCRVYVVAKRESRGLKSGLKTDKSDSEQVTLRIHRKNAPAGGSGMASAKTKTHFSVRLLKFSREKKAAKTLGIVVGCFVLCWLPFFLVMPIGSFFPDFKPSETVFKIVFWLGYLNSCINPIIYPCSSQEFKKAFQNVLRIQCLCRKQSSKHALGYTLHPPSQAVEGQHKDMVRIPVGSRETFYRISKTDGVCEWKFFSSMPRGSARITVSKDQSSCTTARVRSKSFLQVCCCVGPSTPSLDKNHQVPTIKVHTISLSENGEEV
Experimental: Determination of affinity for cloned subtypes of the α1-adrenoceptor was performed in membranes from cells transfected by electroporation with DNA expressing the genes encoding each α1-adrenoceptor subtype.
Non-specific binding was determined in the presence of 10 μM phentolamine. Incubation was stopped by addition of ice-cold Tris buffer and rapid filtration through Schleicher & Schuell GF52 filters that had been pretreated with 0.2%-polyethyleneimine.
Data were expressed as mean of Ki.

pKb, functional affinity for the α1L adrenoceptor subtype (α1L adrenoceptor)	Ki [2] [pM]	Compound	UC ID50 NA (dose inhibiting by 50% the urethral contractions induced by noradrenaline) [1] [µg/kg]
8.85	100	COc1ccccc1N1CCN(CCCNC(=O)c2csc3c(=O)cc(-c4ccccc4)oc23)CC1 [Example 2, N-{3-[4-(2-Methoxyphenyl)-1-piperazinyl]propyl}-7-oxo-5-phenyl-7H-thieno[3,2-b]pyran-3-carboxamide]	1.8
9.12	45	O=C(NCCCN1CCN(c2ccccc2OCC(F)(F)F)CC1)c1csc2c(=O)cc(-c3ccccc3)oc12 [Example 5, 7-Oxo-5-phenyl-N-{3-[4-[2-(2,2,2-trifluoroethoxy)phenyl]-1-piperazinyl]propyl}-7H-thieno[3,2-b]pyran-3-carboxamide]	2.7
